Read-outs that look alike come from different tables or passages of the source.
What was measured:
[1] = molecular target: T1, US28 receptor (Human cytomegalovirus, UniProt P69332); details: same Elk1 reporter assay, from ref 13; cited from earlier work
T1 construct: expressed in transfected cells; host or cells: HEK 293T cells, transiently transfected

[2] = TZMbI assay for cell safety (cell viability and growth, CytoTox Glo); details: human, TZMbI cells, 10 μM, Experiment 1A; read-out: % decrease in viability compared to 0.1% DMSO vehicle based on viable cell luminescence
Protocol: Assays were performed below in accordance with the procedures set forth in The Journal of Immunology, 2006, 176, pp. 6900-905; AIDS Research and Human Retroviruses, 2004, 20:11, pp. 1157-1665.^32,33 TZMbI assays for cell safety were performed to identify potential anti-viral compounds. TZMbI assays for cell safety were performed to identify potential anti-viral compounds per the methods.

[3] = molecular target: T1, US28 receptor; experiment: PathDetect trans Elk1 luciferase reporter gene assay in US28-transfected 293T HEK cells; type: cell-based, Human Cytomegalovirus (HCMV); details: for EC50: 293T HEK cells transiently expressing US28, Elk1 reporter, NE = no effect when tested at 10 μM of compound; for Efficacy(%): maximum intrinsic activity from dose-response curve; for Efficacy(%) / Emax: negative = inverse agonism; for Emax: read-out: Efficacy(%), maximum intrinsic activity from dose-response curve; for type of activity on the US28 receptor (agonist / inverse agonist / none), in words: Elk1 reporter, US28-transfected HEK cells
Summary of the method: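 HEK293T cells transiently transfected with Elk1, Luc and US28 vector (empty pcDNA3 for mock) were dosed with compounds in DMEM/1% FBS with 1% DMSO for 20-24 h at 37° C. Bright-Glo luminescence decrease was read; EC50 is halfway between maximal response and no-compound control, by non-linear regression.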

[4] = test system: HIV-1 BaL; experiment: Anti-HIV assay (luciferase, HIV-1 BaL infection); type: cell-based; details: 10 μM, Experiment 1B, 2 ng/mL p24 HIV-1 BaL; for inhibition at 10 µM: Human immunodeficiency virus 1, BAL
Summary of the method: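 Cells infected with HIV-1 BaL at 2 ng/mL p24 (MOI approx 0.02) in compound presence. Infection read out by luciferase.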

[5] = test system: mock transfected 293T HEK cells; experiment: PathDetect Elk1 luminescence in mock transfected (empty pcDNA3 vector) 293T HEK cells, off-target effect; type: cell-based, human; details: 10 μM vs 1% DMSO control, Equation 1; for activation at 10 µM: Homo sapiens, read-out: Effect(%) on mock cells with each drug at 10 μM
Summary of the method: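 HEK 293T cells were transiently transfected with PathDetect Elk1/luciferase and empty pcDNA3, then exposed to 10 μM compound in medium with 1% FBS and 1% DMSO for 20-24 h at 37 °C. BrightGlo luminescence was compared with the 1% DMSO control: % effect = 100%×(mock/DMSO) − 100%.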

[6] = test system: CHO cells; experiment: CHO cell toxicity, MTS assay, 48 h; type: cell-based, Chinese hamster; details: Cricetulus griseus, CHO, 37° C., MTS reagent, read-out: CHO 48 h IC50 value
Summary of the method: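 CHO cells plated at 10,000 cells/mL, incubated overnight, then exposed to drug (final DMSO <1%) for 48 h at 37 °C, 5% CO2, in triplicate. MTS added for a further 4 h; absorbance read at 490 nm. IC50 taken from relative A490 versus drug concentration.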

T1 sequence (P69332 whole entry): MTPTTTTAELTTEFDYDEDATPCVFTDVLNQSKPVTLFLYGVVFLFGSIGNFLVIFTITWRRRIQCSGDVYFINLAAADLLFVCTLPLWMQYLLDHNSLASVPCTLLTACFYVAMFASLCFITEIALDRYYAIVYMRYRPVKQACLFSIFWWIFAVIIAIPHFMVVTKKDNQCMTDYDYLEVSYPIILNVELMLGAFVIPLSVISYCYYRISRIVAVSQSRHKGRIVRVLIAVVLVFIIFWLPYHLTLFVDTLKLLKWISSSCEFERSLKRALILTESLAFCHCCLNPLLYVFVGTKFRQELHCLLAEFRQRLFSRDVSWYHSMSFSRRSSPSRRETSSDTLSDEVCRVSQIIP

Structure (SMILES)	EC50 [1]	efficacy [1]	cytotoxicity at 10 μM [2]	EC50 ([3]; EC50 (μM))	Efficacy(%) [3]	Emax [3]	melting point	RLU (relative luciferase units) [4]	inhibition at 10 µM [4]	Effect(%) on mock cells with each drug at 10 μM [5]	activation at 10 µM [5]	IC50 [6]	type of activity on the US28 receptor (agonist / inverse agonist / none), in words [3]	Emax at 10 µM ([3]; read-out: Efficacy(%), 10 μM single concentration)	EC50 [3]
N#CC(CCCN1CCC(O)(c2ccc(Cl)cc2)CC1)(c1ccccc1)c1ccccc1 [Compound 5a, VUF2274]	4.5 µM	~22%	–	–	–	–	–	–	–	–	–	–	–	–	–
COc1ccc(I)cc1/C=C/C(=O)c1ccccc1O [Compound 8g, (E)-1-(2-hydroxyphenyl)-3-(5-iodo-2-methoxyphenyl)prop-2-en-1-one]	–	–	99.7%	5.5 µM	~94%	~94%	107 to 109 °C	3.3 RLU	99.6%	100%	100%	6.7 ± 0.7 µM	–	–	–
CCOc1ccc(Cl)cc1/C=C/C(=O)c1ccccc1O [Compound 8i, (E)-3-(5-chloro-2-ethoxyphenyl)-1-(2-hydroxyphenyl)prop-2-en-1-one]	–	–	87.1%	6.4 µM	~76%	~76%	61 to 65 °C	130.4 RLU	86.2%	33%	33%	6.8 ± 0.9 µM	–	–	–
COc1ccc(C)cc1/C=C/C(=O)c1ccccc1O [Compound 8j, (E)-1-(2-hydroxyphenyl)-3-(2-methoxy-5-methylphenyl)prop-2-en-1-one]	–	–	47%	–	–	–	69 to 72 °C	345.7 RLU	63.1%	–	-4%	14.2 ± 2.7 µM	agonist activity	52%	–
COc1cc(OC)c(-c2oc3ccccc3c(=O)c2O)cc1Br [Compound 9e, 2-(5-Bromo-2,4-dimethoxyphenyl)-3-hydroxy-4H-chromen-4-one]	–	–	-11.9%	–	–	–	196 to 201 °C	693.9 RLU	25.9%	–	-17%	18.3 ± 2.5 µM	–	–	> 10 µM
COc1ccc(Br)cc1-c1oc2cccc(OC)c2c(=O)c1O [Compound 9f, 2-(5-Bromo-2-methoxyphenyl)-3-hydroxy-5-methoxy-4H-chromen-4-one]	–	–	-0.2%	–	–	–	207 to 213 °C	528.5 RLU	43.6%	–	-1%	17.3 ± 1.9 µM	–	–	> 10 µM
COc1ccc(I)cc1-c1oc2ccccc2c(=O)c1O [Compound 9g, 3-Hydroxy-2-(5-iodo-2-methoxyphenyl)-4H-chromen-4-one]	–	–	15.3%	–	–	–	153 to 159 °C	358.6 RLU	61.7%	–	-23%	17.9 ± 1.6 µM	–	–	> 10 µM
COc1ccc(C)cc1-c1oc2ccccc2c(=O)c1O [Compound 9j, 3-hydroxy-2-(2-methoxy-5-methylphenyl)-4H-chromen-4-one]	–	–	4.8%	1.78 µM	–	-38%	158 to 164 °C	814.0 RLU	13%	0%	0%	54.6 ± 4.2 µM	inhibited US28 receptor constitutive activity	–	–

Reference: patent publication US9629822B2, “Flavonoid based antiviral targets” (UNIVERSITY OF CENTRAL FLORIDA RESEARCH FOUNDATION, INC., priority 2012, dated 2017)
